Reference: patent US6924314B2, “Compounds for the treatment of metabolic disorders” (Wellstat Therapeutics Corporation, priority 2001, dated 2005)

How the values were obtained:
[1] = test system: ob/ob obese diabetic mice; assay: Acute hypoglycemic effect in ob/ob obese diabetic mice: Expt 2; format: in vivo; conditions: single oral dose 250 mg/kg
Protocol: Male ob/ob mice (50-55 grams; blood glucose ˜300 mg/dL) were divided into groups of five animals each, and given a single oral dose of test drug (250 mg/kg) suspended in 0.5% carboxymethylcellulose vehicle; a control group received oral vehicle alone.
Six hours after oral administration of test drugs or vehicle (control), blood samples were obtained from a tail vein and glucose content was determined with a glucometer.

[2] = test system: ob/ob mice; assay: Hyperglycemia, hyperlipidemia, fatty liver disease and weight gain in ob/ob obese diabetic mice, daily oral dosing; format: in vivo, C57BL/6 mice; conditions: for Free Fatty Acids ± SEM / Glucose ± SEM / Triglycerides ± SEM / ALT (U/L) ± SEM / AST (U/L) ± SEM / SDH (U/L) ± SEM: 4 weeks; for ALT (U/L) ± SEM / AST (U/L) ± SEM / SDH (U/L) ± SEM: serum
Source text: Ob/ob mice have a defect in the gene for leptin, a protein involved in appetite regulation and energy metabolism, and are hyperphagic, obese, and insulin resistant. They develop hyperglycemia and fatty liver.

[3] = test system: db/db mice; assay: Antidiabetic effects in db/db mice, four weeks of daily oral dosing; format: in vivo; conditions: for Glucose / Glucose (% of Control): 150 mg/kg daily oral, four weeks; for blood glucose: after four weeks of daily oral dosing (Compound AW, BH 150 mg/kg; pioglitazone 100 mg/kg)
Source text: Db/db mice have a defect in leptin signaling, leading to hyperphagia, obesity and diabetes. Moreover, unlike ob/ob mice which have relatively robust islets, their insulin-producing pancreatic islet cells undergo failure during chronic hyperglycemia, so that they transition from hyperinsulinemia (associated with peripheral insulin resistance) to hypoinsulinemic diabetes.
Male db/db mice were given daily oral treatments with vehicle (0.75% hydroxypropylmethylcellulose) or antidiabetic compounds as indicated below. Blood samples were obtained via the retro-orbital sinus for serum chemistry analysis, or via the tail vein for glucose measurement with a test strip and glucometer.
The dose of pioglitazone used in this experiment was reported in the literature to be a maximally-effective dose for treatment of db/db mice (Shimaya et al. (2000), Metabolism 49:411-7).

[4] = test system: Zucker Diabetic Fatty (ZDF) rats; assay: Attenuation of cataractogenesis in Zucker Diabetic Fatty (ZDF) rats; format: in vivo; conditions: 100 mg/kg daily oral, 10 weeks
Source text: Cataracts are one of the leading causes of progressive vision decline and blindness associated with ageing and diabetes, and the Zucker diabetic fatty (ZDF) model has many similarities with human cataractogenesis, including biochemical changes and oxidative stress in the lens. These rats, however, undergo cataractogenesis typically between 14-16 weeks of age.
Male ZDF rats and their aged-match Zucker lean (ZL) counterparts (fa/+ or +/+) were obtained from Genetic Models, Inc. (Indianapolis, Ind.) aged 12 weeks and acclimatized for 1 week prior to study. […] Treatment cohorts were given a daily oral dose of vehicle and 100 mg/kg of BI or BH for 10 weeks. […] At the end of the treatment period 100 μl of venous blood was collected (usually 10:00 A.M.) in a heparinized tube from the tail vein for serum chemistry analysis (Anilytics, Inc., Gaithersburg, Md.). […] Plasma insulin was measured by an electrochemiluminescent immunoassay, ECL (Origen Analyzer, Igen, Inc., Gaithersburg, Md.). The animals were sacrificed and tissues and/or organs (lens and liver) were extirpated, weighed (wet weight) and processed for biochemical analyses. Malondialdehyde (MDA), a major product of lipid peroxidation was assayed in lenses according to Ohkawa et al (1979), Analytical Biochem 95, 351-358).

## O=C(O)CCC(=O)c1cccc(OCc2c(F)cccc2F)c1 [Compound AW, 4-(3-(2,6-Difluorobenzyloxy)phenyl)-4-oxobutyric acid]
[1]
  Blood Glucose after 6 hours: 143 ± 15 mg/dL
[2]; 3 mg/kg/day, four week treatment period
  Mean body weight gain (grams): +7.3 grams
[2]; 10 mg/kg/day oral
  Free Fatty Acids ± SEM: 3697.4 ± 357.8 µmol/L
  Glucose ± SEM: 369.6 ± 62.5 mg/dL
  Triglycerides ± SEM: 115.6 ± 7.8 mg/dL
  ALT (U/L) ± SEM: 483.8 ± 81.9 U/L
  AST (U/L) ± SEM: 653.4 ± 104.8 U/L
  SDH (U/L) ± SEM: 626.8 ± 93.8 U/L
[2]; 10 mg/kg/day, four week treatment period
  Mean body weight gain (grams): +6.7 grams
[2]; 30 mg/kg/day oral
  Free Fatty Acids ± SEM: 2552.2 ± 334.7 µmol/L
  Glucose ± SEM: 280.2 ± 46.7 mg/dL
  Triglycerides ± SEM: 96.4 ± 7.3 mg/dL
  ALT (U/L) ± SEM: 320.2 ± 46.2 U/L
  AST (U/L) ± SEM: 399.6 ± 74.4 U/L
  SDH (U/L) ± SEM: 333.0 ± 66.9 U/L
[2]; 30 mg/kg/day, four week treatment period
  Mean body weight gain (grams): +6.4 grams
[2]; 100 mg/kg/day oral
  Free Fatty Acids ± SEM: 1476 ± 82.1 µmol/L
  Glucose ± SEM: 286 ± 47.1 mg/dL
  Triglycerides ± SEM: 66.2 ± 5.9 mg/dL
  ALT (U/L) ± SEM: 202.8 ± 38.0 U/L
  AST (U/L) ± SEM: 143.8 ± 30.4 U/L
  SDH (U/L) ± SEM: 121.2 ± 14.1 U/L
[2]; 100 mg/kg/day, four week treatment period
  Mean body weight gain (grams): +3.4 grams
[2]; 150 mg/kg/day oral
  Free Fatty Acids ± SEM: 1481 ± 158.8 µmol/L
  Glucose ± SEM: 188.6 ± 28.8 mg/dL
  Triglycerides ± SEM: 72.6 ± 5.6 mg/dL
  ALT (U/L) ± SEM: 149.2 ± 15.6 U/L
  AST (U/L) ± SEM: 185.8 ± 26.0 U/L
  SDH (U/L) ± SEM: 166.2 ± 20.0 U/L
[2]; 150 mg/kg/day, four week treatment period
  Mean body weight gain (grams): +4.6 grams
[2]; 300 mg/kg/day oral
  Free Fatty Acids ± SEM: 1452.6 ± 111.1 µmol/L
  Glucose ± SEM: 128.4 ± 8.8 mg/dL
  Triglycerides ± SEM: 63.6 ± 3.4 mg/dL
  ALT (U/L) ± SEM: 188.2 ± 10.3 U/L
  AST (U/L) ± SEM: 335.4 ± 44.8 U/L
  SDH (U/L) ± SEM: 207.0 ± 29.3 U/L
[2]; 300 mg/kg/day, four week treatment period
  Mean body weight gain (grams): −0.7 grams
[2]; daily oral doses, compared with pioglitazone and rosiglitazone
  blood glucose: reduction in blood glucose comparable to that achieved with pioglitazone and rosiglitazone
[2]; daily treatment for 4 weeks
  liver fat droplets (liver histology): marked reduction in liver fat droplets
[2]; doses of 100 to 300 mg/kg/day, versus comparators at their optimum antihyperglycemic doses
  serum triglycerides and fatty acids: reduced serum triglycerides and fatty acids better than did either rosiglitazone or pioglitazone
[2]; doses ranging from 30 mg/kg/day to 300 mg/kg/day
  serum liver enzymes (ALT, AST, SDH): dose-dependent decrease in serum liver enzymes
[2]; four week treatment period
  weight gain relative to vehicle-treated mice: dose-dependent attenuation of weight gain
[3]
  Glucose: 313 ± 34 mg/dL
  Glucose (% of Control): 56 ± 6 % of Control
  blood glucose: significant reduction in blood glucose

## O=C(O)CCC(=O)c1cccc(OCC2CC2)c1 [Compound BH, 4-(3-((Cyclopropyl)-methoxy)phenyl)-4-oxobutyric acid]
[4]
  % Protection Left Eye: 33%
  % Protection Right Eye: 17%
  Cataract Formation Left Eye: 4/6
  Cataract Formation Right Eye: 5/6
[4]; means ± SEM
  Lenticular MDA: 1.9 ± 0.2 nmol/g lens
  Size (mm) Left Lens: 2.5 ± 0.3 mm
  Size (mm) Right Lens: 2.1 ± 0.4 mm
  Weight (mg) Left Lens: 27.0 ± 7.2 mg
  Weight (mg) Right Lens: 20.0 ± 6.6 mg
[3]
  Glucose: 229 ± 49 mg/dL
  Glucose (% of Control): 41 ± 9 % of Control
  blood glucose: significant reduction in blood glucose
